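GI50 marks 50% less growth. TGI marks complete inhibition of growth.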
Legend:
Assay in all cases: NCI-60 cell line screen, 384-well format
MCF7 breast = test system: MCF7 breast
SNB-19 CNS = test system: SNB-19 CNS
HCC-2998 colon = test system: HCC-2998 colon
SW-620 colon = test system: SW-620 colon
HOP-62 NSCLC = test system: HOP-62 NSCLC
PC-3 prostate = test system: PC-3 prostate
SK-OV-3 ovarian = test system: SK-OV-3 ovarian
A498 renal = test system: A498 renal
A549 NSCLC = test system: A549 NSCLC
OVCAR-3 ovarian = test system: OVCAR-3 ovarian
COLO 205 colon = test system: COLO 205 colon
MOLT-4 leukemia = test system: MOLT-4 leukemia
SK-MEL-5 melanoma = test system: SK-MEL-5 melanoma
HOP-92 NSCLC = test system: HOP-92 NSCLC
M14 melanoma = test system: M14 melanoma
RXF 393 renal = test system: RXF 393 renal
MDA-MB-468 breast = test system: MDA-MB-468 breast
TK-10 renal = test system: TK-10 renal
SR leukemia = test system: SR leukemia
MDA-MB-231 breast = test system: MDA-MB-231 breast
UACC-62 melanoma = test system: UACC-62 melanoma
SK-MEL-28 melanoma = test system: SK-MEL-28 melanoma
SNB-75 CNS = test system: SNB-75 CNS
786-0 renal = test system: 786-0 renal
NCI-H23 lung = test system: NCI-H23 lung
NCI-H460 NSCLC = test system: NCI-H460 NSCLC
CCRF-CEM leukemia = test system: CCRF-CEM leukemia
UO-31 renal = test system: UO-31 renal
NCI/ADR-RES ovarian = test system: NCI/ADR-RES ovarian
NCI-H322M lung = test system: NCI-H322M lung
MDA-MB-435 melanoma = test system: MDA-MB-435 melanoma
DU-145 prostate = test system: DU-145 prostate
KM12 colon = test system: KM12 colon
SK-MEL-2 melanoma = test system: SK-MEL-2 melanoma
HCT-15 colon = test system: HCT-15 colon
BT-549 breast = test system: BT-549 breast
SF-539 CNS = test system: SF-539 CNS
OVCAR-4 ovarian = test system: OVCAR-4 ovarian
OVCAR-8 ovarian = test system: OVCAR-8 ovarian
NCI-H226 lung = test system: NCI-H226 lung
HS 578T breast = test system: HS 578T breast
SF-295 CNS = test system: SF-295 CNS
OVCAR-5 ovarian = test system: OVCAR-5 ovarian
MALME-3M melanoma = test system: MALME-3M melanoma
UACC-257 melanoma = test system: UACC-257 melanoma
HT29 colon = test system: HT29 colon
RPMI-8226 leukemia = test system: RPMI-8226 leukemia

SMILES: N#Cc1c(N)nc(N)nc1N[C@H](c1nc2c(F)ccc(Cl)c2c(=O)n1-c1cccnc1)C1CC1
- GI50 (MCF7 breast): 2.73 µM
- TGI (MCF7 breast): > 100 µM
- GI50 (SNB-19 CNS): 15 µM
- TGI (SNB-19 CNS): 31.8 µM
- GI50 (HCC-2998 colon): 11 µM
- TGI (HCC-2998 colon): 24.5 µM
- GI50 (SW-620 colon): 11.9 µM
- TGI (SW-620 colon): 36.3 µM
- GI50 (HOP-62 NSCLC): 17.9 µM
- TGI (HOP-62 NSCLC): > 65.3 µM
- GI50 (PC-3 prostate): 1.08 µM
- TGI (PC-3 prostate): 14 µM
- GI50 (SK-OV-3 ovarian): 4.36 µM
- TGI (SK-OV-3 ovarian): 37.5 µM
- GI50 (A498 renal): 0.445 µM
- TGI (A498 renal): 3.11 µM
- GI50 (A549 NSCLC): 9.47 µM
- TGI (A549 NSCLC): 30.1 µM
- GI50 (OVCAR-3 ovarian): 0.728 µM
- TGI (OVCAR-3 ovarian): 6.73 µM
- GI50 (COLO 205 colon): 19.8 µM
- TGI (COLO 205 colon): > 91.6 µM
- GI50 (MOLT-4 leukemia): 1.54 µM
- TGI (MOLT-4 leukemia): 3.94 µM
- GI50 (SK-MEL-5 melanoma): 12.6 µM
- TGI (SK-MEL-5 melanoma): 34.3 µM
- GI50 (HOP-92 NSCLC): 0.677 µM
- TGI (HOP-92 NSCLC): 14.3 µM
- GI50 (M14 melanoma): 79 µM
- TGI (M14 melanoma): > 100 µM
- GI50 (RXF 393 renal): 0.2 µM
- TGI (RXF 393 renal): 0.936 µM
- GI50 (MDA-MB-468 breast): 0.912 µM
- TGI (MDA-MB-468 breast): 5.94 µM
- GI50 (TK-10 renal): 4.55 µM
- TGI (TK-10 renal): 29.1 µM
- GI50 (SR leukemia): 10.5 µM
- TGI (SR leukemia): 22.5 µM
- GI50 (MDA-MB-231 breast): 9.59 µM
- TGI (MDA-MB-231 breast): 34.2 µM
- GI50 (UACC-62 melanoma): 3.23 µM
- TGI (UACC-62 melanoma): 58.9 µM
- GI50 (SK-MEL-28 melanoma): 3.88 µM
- TGI (SK-MEL-28 melanoma): > 100 µM
- GI50 (SNB-75 CNS): 0.67 µM
- TGI (SNB-75 CNS): 5.1 µM
- GI50 (786-0 renal): 3.51 µM
- TGI (786-0 renal): 24.4 µM
- GI50 (NCI-H23 lung): 15.3 µM
- TGI (NCI-H23 lung): 54.8 µM
- GI50 (NCI-H460 NSCLC): 5.48 µM
- TGI (NCI-H460 NSCLC): > 100 µM
- GI50 (CCRF-CEM leukemia): 1.42 µM
- TGI (CCRF-CEM leukemia): 10.6 µM
- GI50 (UO-31 renal): 2.64 µM
- TGI (UO-31 renal): 8.87 µM
- GI50 (NCI/ADR-RES ovarian): 34.2 µM
- TGI (NCI/ADR-RES ovarian): > 100 µM
- GI50 (NCI-H322M lung): 14.9 µM
- TGI (NCI-H322M lung): > 80.1 µM
- GI50 (MDA-MB-435 melanoma): 35.4 µM
- TGI (MDA-MB-435 melanoma): > 100 µM
- GI50 (DU-145 prostate): 13.4 µM
- TGI (DU-145 prostate): > 85.1 µM
- GI50 (KM12 colon): 17.8 µM
- TGI (KM12 colon): 52.3 µM
- GI50 (SK-MEL-2 melanoma): 17.3 µM
- TGI (SK-MEL-2 melanoma): 39.3 µM
- GI50 (HCT-15 colon): 16.1 µM
- TGI (HCT-15 colon): 44.9 µM
- GI50 (BT-549 breast): 0.711 µM
- TGI (BT-549 breast): 12.9 µM
- GI50 (SF-539 CNS): 5.96 µM
- TGI (SF-539 CNS): 44.5 µM
- GI50 (OVCAR-4 ovarian): 10.8 µM
- TGI (OVCAR-4 ovarian): 52.7 µM
- GI50 (OVCAR-8 ovarian): 13.4 µM
- TGI (OVCAR-8 ovarian): 32.7 µM
- GI50 (NCI-H226 lung): 15.6 µM
- TGI (NCI-H226 lung): > 57.7 µM
- GI50 (HS 578T breast): 1.79 µM
- TGI (HS 578T breast): 15.4 µM
- GI50 (SF-295 CNS): 2.37 µM
- TGI (SF-295 CNS): 18.4 µM
- GI50 (OVCAR-5 ovarian): 9.12 µM
- TGI (OVCAR-5 ovarian): 43.1 µM
- GI50 (MALME-3M melanoma): > 39.9 µM
- TGI (MALME-3M melanoma): > 100 µM
- GI50 (UACC-257 melanoma): 19.5 µM
- TGI (UACC-257 melanoma): > 100 µM
- GI50 (HT29 colon): 13.4 µM
- TGI (HT29 colon): 42 µM
- GI50 (RPMI-8226 leukemia): 3.36 µM
- TGI (RPMI-8226 leukemia): 10.3 µM
